For this experiment, the system named is neuropathic pain (chronic constriction injury, CCI). Description: In vivo assessment of analgesic effect against neuropathic pain (Bennett model, chronic constriction injury, tactile allodynia with von Frey filaments). Conditions: Rattus norvegicus, po, 1 h, male Sprague Dawley rats, 10 mg/kg orally, mechanical allodynia 60 minutes following administration, percentage of maximum possible effect from log g PWT, read-out: % MPE. The protocol:
(ii) Vivo Assessment of Analgesic Effect Against Neuropathic Pain (Bennett Model)
Animals were prepared for testing, by use of a surgical procedure that induces neuropathic pain in one paw. IACUC guidelines for rodent survival surgery were followed. All surgical procedures were conducted on a clean, uncluttered surgical station. The area was wiped with a 70% ethanol solution before and after use. All instruments were sterilized by either autoclave or chemical sterilant (such as 2% glutaraldehyde>10 hours). Surgeons wore sterile gloves (for the initial procedure), clean lab coat or scrubs, hairnet or cap, and a half-mask respirator (when not working under a hood). Surgeons thoroughly washed their hands prior to donning sterile gloves. Gloves were disinfected in-between animals by cleansing with povidone iodine, chlorhexidine or 70% alcohol for at least 30 seconds. If multiple surgeries were performed, the instruments were cleaned and sterilized between procedures with hot glass beads (>10 seconds). To prevent thermal or chemical burns, the instruments were cooled by rinsing in sterile saline before use.
Male, Sprague Dawley® rats, 175-200 g were used for surgeries. To minimize post-operative dehydration/maintain blood volume during the surgery, warmed sterile saline or Lactate Ringers solution at 10-15 mL/kg was administered subcutaneously immediately before or after surgery. This facilitates better renal function and presumably anesthesia product excretion post surgery. For all surgical procedures, anesthesia was induced with 4-5% isoflurane. Anesthesia was maintained during surgery with 1-3% isoflurane. Following induction, the surgical site was carefully shaved and the exposed area was aseptically prepared with povidone-iodine scrub solution and 70% ethanol 2-3 times.
Chronic constriction injury (CCI), a model of neuropathic pain, was produced by following the method of Bennett and Xie (Bennett, G., et al. Pain, 1988, 33, 87-107). After site sterilization and anesthetic procedures outline above were completed, a 1.5 cm incision is made at the mid-thigh level to expose the biceps femoris and gluteous superficialis (right side), which were then separated by blunt dissection. The common sciatic nerve was exposed, isolated, and loosely ligated by four 5-0 chromic gut ligatures with <1 mm spacing between each. The surgical site was closed in layers—muscle is closed with 6.0 absorbable sutures, and the skin closed with wound clips. Animals were allowed to recover on a warming plate and were returned to their home cages when fully ambulatory. Animals were not be used for testing until at least 10 days following surgery.
To measure mechanical sensitivity, tactile allodynia was measured using calibrated von Frey filaments (Stoelting, Wood Dale, Ill.) as described by Chaplan et al. (Chaplan S., et al. J of Neuroscience Methods 1994, 53, 55-63). Filament strengths used were: 0.4, 0.6, 1.0, 2, 4, 6, 8, and 15 g. Rats were placed into inverted individual plastic containers (20×12.5×20 cm) on top of a suspended wire mesh grid, and acclimated to the test chambers for at least 20 minutes. Filaments were applied perpendicular to the mid-plantar paw surface with enough force to cause slight buckling and held in place for 6-8 seconds. Positive responses included an abrupt withdrawal of the paw from the stimulus or flinching behavior immediately following removal of the stimulus. The maximum force applied was 15 g. The 50% paw withdrawal threshold (PWT) was calculated in grams (g) using the up-down method of Dixon (Dixon W. Ann Rev Pharmacol Toxicol 1980, 20, 441-462). […] All compounds were orally administered at 10 mg/kg in 10% dimethyl sulfoxide/polyethylene glycol at a volume of 2.0 mL/kg, and mechanical allodynia was determined 60 minutes following compound administration. […]
With `O=C(c1cccc(C(F)(F)F)c1)N1CCN2C[C@H](Oc3cnc(C4CC4)cn3)C[C@H]2C1` [Example 68, [(7R,8aS)-7-[(5-cyclopropylpyrazin-2-yl)oxy]hexahydropyrrolo[1,2-a]-pyrazin-2(1H)-yl][3-(trifluoromethyl)phenyl]methanone], the inhibition in vivo at 10 mg/kg was 28%.

On to `O=C(c1cccc(C(F)(F)F)c1F)N1CCN2C[C@H](Oc3cnc(C4CC4)cn3)C[C@H]2C1` [Example 80, [(7R,8aS)-7-[(5-cyclopropylpyrazin-2-yl)oxy]hexahydropyrrolo[1,2-a]-pyrazin-2(1H)-yl][2-fluoro-3-(trifluoromethyl)phenyl]methanone], for which the inhibition in vivo at 10 mg/kg turned out to be 31%.

Consider `O=C(c1cc(F)c(Cl)cc1F)N1CCN2C[C@H](Oc3cnc(C4CC4)cn3)C[C@H]2C1` [Example 73, (4-chloro-2,5-difluorophenyl)[(7R,8aS)-7-[(5-cyclopropylpyrazin-2-yl)-oxy]hexahydropyrrolo[1,2-a]pyrazin-2(1H)-yl]methanone], for which the inhibition in vivo at 10 mg/kg came to 48%.

With `O=C(c1cccc(OC(F)(F)F)c1)N1CCN2C[C@H](Oc3cnc(C4CC4)cn3)C[C@H]2C1` [Example 81, [(7R,8aS)-7-[(5-cyclopropylpyrazin-2-yl)oxy]hexahydropyrrolo[1,2-a]-pyrazin-2(1H)-yl][3-(trifluoromethoxy)phenyl]methanone], the inhibition in vivo at 10 mg/kg was found to be 39%.

Regarding `O=C(c1cc(C(F)(F)F)ccc1Cl)N1CCN2C[C@H](Oc3cnc(C4CC4)cn3)C[C@H]2C1` [Example 72, [2-chloro-5-(trifluoromethyl)phenyl][(7R,8aS)-7-[(5-cyclopropylpyrazin-2-yl)oxy]hexahydropyrrolo[1,2-a]pyrazin-2(1H)-yl]methanone], the inhibition in vivo at 10 mg/kg was 20%.

On to `CN[C@H](C(=O)N1CCN2C[C@H](Oc3cnc(C4CC4)cn3)C[C@H]2C1)c1cccc(C(F)(F)F)c1` [Example 186, (2S)-1-[(7R,8aS)-7-[(5-cyclopropylpyrazin-2-yl)oxy]hexahydropyrrolo[1,2-a]pyrazin-2(1H)-yl]-2-(methylamino)-2-[3-(trifluoromethyl)phenyl]ethanone], for which the inhibition in vivo at 10 mg/kg was 91%.

For the compound `O=C(/C=C/c1ccc(F)c(C(F)(F)F)c1)N1CCN2C[C@H](Oc3cnc(C4CC4)cn3)C[C@H]2C1` [Example 154, (2E)-1-[(7R,8aS)-7-[(5-cyclopropylpyrazin-2-yl)oxy]hexahydropyrrolo[1,2-a]pyrazin-2(1H)-yl]-3-[4-fluoro-3-(trifluoromethyl)phenyl]prop-2-en-1-one], the inhibition in vivo at 10 mg/kg was 0%.

As for `O=C(c1ccc(F)c(C(F)(F)F)c1)N1CCN2C[C@H](Oc3cnc(C4CC4)cn3)C[C@H]2C1` [Example 55, [(7R,8aS)-7-[(5-cyclopropylpyrazin-2-yl)oxy]hexahydropyrrolo[1,2-a]-pyrazin-2(1H)-yl][4-fluoro-3-(trifluoromethyl)phenyl]methanone], the inhibition in vivo at 10 mg/kg stood at 31%.

With `O=C(c1cccc(C(F)(F)F)c1)N1CC(=O)N2C[C@H](Oc3cnc(C4CC4)cn3)C[C@H]2C1` [Example 178, (7R,8aS)-7-[(5-cyclopropylpyrazin-2-yl)oxy]-2-[3-(trifluoromethyl)-benzoyl]hexahydropyrrolo[1,2-a]pyrazin-4(1H)-one], the inhibition in vivo at 10 mg/kg was found to be 28%.

Take `CN[C@@H](C(=O)N1CCN2C[C@H](Oc3cnc(C4CC4)cn3)C[C@H]2C1)c1cccc(C(F)(F)F)c1` [Example 187, (2R)-1-[(7R,8aS)-7-[(5-cyclopropylpyrazin-2-yl)oxy]hexahydropyrrolo[1,2-a]pyrazin-2(1H)-yl]-2-(methylamino)-2-[3-(trifluoromethyl)phenyl]ethanone]: the inhibition in vivo at 10 mg/kg is 67%.

Source of the values: US8669255B2, “Substituted octahydropyrrolo[1,2-a]pyrazines as calcium channel blockers” (AbbVie Inc., priority 2011, dated 2014).
